Data: US11096925B2, “Indole derivatives for biofilm disruption and inhibition” (LIFE MATTERS LTD., priority 2015, dated 2021)
“Also recorded” adds a separate entry of the source.

Legend:
A. baumannii [1] = experiment: Biofilm formation under static conditions, CLSM with Live/Dead staining; format: cell-based, Acinetobacter baumannii; conditions: for density of attached cells (biofilm) / mortality of the bacterial cells: 50 μM; for density of attached cells (biofilm): 18 h static incubation at 37° C.; for mortality of the bacterial cells: compared with DMSO control
Method: (§1) FIGS. 1A-B show prevention of biofilm formation. Confocal laser scanning micrographs (CLSM) of P. aeruginosa PA01 (A) and A. baumannii (B) formed in glass-bottomed 96 well plates after 18 h of static incubation at 37° C. Cultures were grown in the presence of either 50 μM DIV or NN, or an equivalent amount of DMSO for control. Biofilms were stained using the Live/Dead bacterial viability kit. Live, dead and total bio-volumes (μm^3/μm^2) were calculated based on image analysis and data from the IMARIS software. Bars indicate standard deviations for triplicate sets of experiments.
(§2) FIGS. 5A-D show biofilm attenuation of the pathogens P. stuartii (A), S. marcescens (B), A. baumannii (C) and P. aeruginosa PA01 (D). Cultures were grown in the presence of either 50 μM DIM or an equivalent amount of DMSO for control. Biofilms were stained with the LIVE/DEAD bacterial viability kit. For each species and per treatment, live, dead and total bio-volumes (μm^3/μm^2) were calculated based on image analysis and data from the IMARIS software, and % biofilm inhibition was calculated based on live bio-volumes. The results are the average values of analysis of at least three micrographs.
(§3) Bioflims of P. aeruginosa and A. baumanii that were developed on glass slides were determined using confocal scanning laser microscopy (CSLM) (FIG. 1). Accordingly, the density of the biofilms prior to and following treatment by NN and DIV was measured.
(§4) The current study investigated the influence of DIM on the biofilm formation process and on the destruction of existing biofilms of several pathogenic gram-negative bacterial strains.

P. larvae = conditions: agar diffusion method (Brenda et al., 2010); cited from earlier work
P. aeruginosa PA01 [2] = experiment: Virulence factor production, spectrophotometry of cell-free culture; format: cell-based, Pseudomonas aeruginosa; conditions: for virulence factors production: P. aeruginosa PA01 grown with 50 μM compound
Method: (§5) FIGS. 3A-B show effect on, P. aeruginosa PA01 pathogenesis. (A) Inhibition of virulence factors production in P. aeruginosa PA01, which were grown in the presence of 50 μM NN or DIV. Tetracycline is used as positive control. Results are based on OD measurements distinctive to each factor and normalized to bacterial growth at OD600 nm. Error bars represent SD of three independent repetitions. (B) C. elegans killing assay assed by SYTOX Orange stain within 24 h.
Results are based on OD measurements specific to each factor and normalized to the growth OD of 600 nm. Bars indicate standard deviations for triplicate sets of experiments.
(§6) Driven by an arsenal of virulence factors added to the biofilm mode of growth, P. aeruginosa PA01 pathogenesis depends on the type of the infection. Therefore, both compounds were tested for their abilities to suppress prominent virulence determinants (FIG. 3A). […] Measuring nematode survivorship following exposure to P. aeruginosa in the absence and presence of modulating compounds, therefore, provides a good model for assessing the effectiveness of the novel compounds on the pathogenesis of the bacteria.
The basis of P. aeruginosa pathogenicity is an arsenal of virulence determinants designed for survival and proliferation in the host that enable bacterial invasion and the subsequent establishment of infection. The success of this microorganism is largely due to its ability to form intractable biofilms and to produce myriad virulence factors controlled by a quorum-sensing (QS) system.

S. marcescens = experiment: Biofilm formation under static conditions, CLSM; format: cell-based, Serratia marcescens; conditions: 50 μM DIM
Method: as §2, §4

P. aeruginosa PA01 [3] = experiment: Biofilm formation under static conditions, CLSM with Live/Dead staining; format: cell-based, Pseudomonas aeruginosa; conditions: for density of attached cells (biofilm) / mortality of the bacterial cells: 50 μM; for density of attached cells (biofilm): 18 h static incubation at 37° C.; for mortality of the bacterial cells: compared with DMSO control
Method: as §1, §2, §3, §4

Erwinia carotovora = experiment: Biofilm formation by plant-associated bacteria, static 96 well plates, CLSM; format: cell-based; conditions: 50 μM, 18 h static
Method: Biofilm formed in glass-bottomed 96 well plates after 18 h of static incubation at 37° C. was investigated by confocal laser scanning micrographs (CLSM). Cultures were grown in the presence of either 50 μM DIM or NN, or an equivalent amount of DMSO for control. Biofilms were stained using the Live/Dead bacterial viability kit. Live, dead and total bio-volumes (μm^3/μm^2) were calculated based on image analysis and data from the IMARIS software.
Erwinia carotovora was cultured in glass-bottomed 96 well plates for 18 h in static conditions. The growth medium was provided with either 50 μM DIM or NN and the resulted biofilms was investigated using CSLM.

P. aeruginosa = experiment: Biofilm formation in dynamic flow-cell system; format: cell-based, Pseudomonas aeruginosa
Text: (§7) In addition, we tested the anti-biofilm properties of the well-studied anti-cancer compound 3,3′-Diindolylmethane (DIM), a metabolite found in cruciferous vegetables. Inhibition of biofilm establishment by DIM was investigated with different clinical pathogens under static conditions. Biofilm formation by A. baumannii and P. aeruginosa was further tested in a dynamic flow-cell system, in which biofilm inhibition levels of 86% and 76% were obtained, respectively. […] Further examination of the hypothesized synergistic effect obtained by combining conventional antibiotics with the DIM compound may offer a promising strategy for the eradication of biofilm complexes.

P. stuartii = experiment: Biofilm formation under static conditions, CLSM; format: cell-based, Providencia stuartii; conditions: 50 μM DIM
Method: as §2, §4

[4] = test system: P. aeruginosa PA01 mature biofilm; experiment: Destruction of mature biofilm in flow cell, CLSM; format: cell-based, Pseudomonas aeruginosa; conditions: 72 h biofilm, then 48 h treatment, 50 μM compound, 20 μg/ml tobramycin
Method: FIG. 2 depicts destruction of P. aeruginosa PA01 mature biofilm; biofilm formed in a flow cell after 72 h of incubation at 37° C. and 48 h more in the presence of 50 μM NN, 20 μg/ml Tobramycin, and 50 μM NN with 20 μg/ml tobramycin. Biofilms were stained with Live/Dead bacterial viability kit. Quantification of BioVolume; Live, dead and total bio-volumes (μm^3/μm^2) calculated based on image analysis and data from the IMARIS software. The images were acquired from three different areas in each treatment.
FIG. 6. depicts destruction of mature, differentiated biofilm of P. aeruginosa PA01. Statistical analysis of CSLM images of biofilm formed in a flow system after 120 h, and with supplementation of 50 μM DIM, 20 μg/ml Tobramycin and a combined treatment of 50 μM DIM with 20 μg/ml Tobramycin. Biofilms were stained with the LIVE/DEAD bacterial viability kit. Quantification of bio-volume: live, dead and total bio-volumes (μm^3/μm^2) were calculated based on image analysis and data from the IMARIS software.
Dynamic growth conditions in flow cell systems are considered to be representative of the real conditions in humeral tissues, where the pathogen thrives in enriched settings. […] Once the efficiency of the new compounds was tested, we proceeded to assess the efficacy of adding antibiotic treatment to the novel compounds to eradicate biofilm (FIG. 2). […] On the other hand, when treated by both the antibiotic and the NN, the biofilm was eradicated and the bacterial cells died.
To investigate the combined destructive effect of the biofilm inhibitor compound and an antibiotic, P. aeruginosa PA01 was cultured for 72 h in the continuous flow system until a mature biofilm had been established Immediately after its establishment, the biofilm was challenged with DIM and/or the antibiotic tobramycin, the known activity of which is protein synthesis inhibition (FIG. 6).

A. baumannii [5] = experiment: Biofilm formation in dynamic flow-cell system; format: cell-based, Acinetobacter baumannii
Text: as §7

[6] = test system: A549 Human Lung Cell line infected by P. aeruginosa; experiment: Cytotoxicity and apoptosis of A549 cells infected with pre-treated bacteria, calcein staining; format: cell-based; conditions: bacteria pre-treated with compound, 24 h
Method: FIGS. 4A-B show reduced adhesion and virulence of P. aeruginosa PA01 in human A549 lung cells model. (A) Cytotoxicity effect and apoptosis of A549 cells by P. aeruginosa PA01 pre-treated with DIV or NN during 24 h. The infection progress was monitored by calcein staining using Operetta screening system. All the experiments were performed in triplicates. (B) Adhesion of P. aeruginosa PA01 (5×10^7 CFU/ml) pre-treated with DIV or NN to A549 cells for 1 hr of incubation. Excess bacteria were removed and the released cells were plated followed CFU counts determination.
In order to test the possible effects of these compounds on higher organisms, we tested NN and DIV on A549 Human Lung Cell line infected by P. aeruginosa. Additional tests were carried out for NN and DIV to assess the effect of this compound to enhance the survival of A549 cells during infection with P. aeruginosa PA01. […] Due the fact that adherence to a humeral cell is considered a crucial step in the bacterial infection initiation process, P. aeruginosa PA01 pre-treated with DIV or NN was tested for its adherence potency to lung epithelial cells A549.

[7] = test system: Caenorhabditis elegans infected by Pseudomonas aeruginosa; experiment: C. elegans killing assay; format: in vivo; conditions: SYTOX Orange stain within 24 h
Method: as §5, §6

SMILES | biofilm formation / density of attached cells (Erwinia carotovora) | destruction of mature biofilm [4] | density of attached cells (biofilm) (A. baumannii [1]) | mortality of the bacterial cells (A. baumannii [1]) | cytotoxicity effect and apoptosis of A549 cells by pre-treated P. aeruginosa PA01 [6] | virulence factors production (P. aeruginosa PA01 [2]) | density of attached cells (biofilm) (P. aeruginosa PA01 [3]) | mortality of the bacterial cells (P. aeruginosa PA01 [3]) | survivorship of C. elegans following exposure to P. aeruginosa [7] | further results
c1ccc2c(Cc3c[nH]c4ccccc34)c[nH]c2c1 [DIM, di(1H-indol-3-yl)methane] | prevents biofilm formation | destruction of existing, stable biofilm |  |  |  |  |  |  |  | biofilm formation compared to control (A. baumannii [1]; 50 μM DIM, static): substantially reduced biofilms; antibiotic activity against P. larvae (P. larvae): antibiotic activity; reduction in chitinase production (P. aeruginosa PA01 [2]; 50 μM DIM): 35%; reduction in elastase (P. aeruginosa PA01 [2]; 50 μM DIM): 19%; reduction in protease (P. aeruginosa PA01 [2]; 50 μM DIM): 10%; reduction in pyocyanin (P. aeruginosa PA01 [2]; 50 μM DIM): 21%; reduction in pyoverdine (P. aeruginosa PA01 [2]; 50 μM DIM): 20%; biofilm formation compared to control (S. marcescens): substantially reduced biofilms; biofilm formation compared to control (P. aeruginosa PA01 [3]; 50 μM DIM, static): substantially reduced biofilms; biofilm inhibition levels (P. aeruginosa): 76%; biofilm formation compared to control (P. stuartii): substantially reduced biofilms; biofilm inhibition levels (A. baumannii [5]): 86%
c1ccc2c(c1)CC(c1cc3ccccc3[nH]1)N2 (centres unmarked) [DIV, 2-(indolin-2-yl)-1H-indole] |  |  | smaller effects | negligible mortality | suspended the cytotoxicity effect and apoptosis killing | reduced significantly | reduction of density of attached cells | negligible mortality | pathogenesis of P. aeruginosa is reduced | 
c1ccc2c(c1)ccn2-n1ccc2ccccc21 [NN, 1,1′-Biindole] | prevents biofilm formation | reduced but not eradicated | smaller effects | negligible mortality | suspended the cytotoxicity effect and apoptosis killing | reduced significantly | reduction of density of attached cells; also recorded: most effective | negligible mortality | significantly increased survivorship | 
NC[C@H]1O[C@H](O[C@H]2[C@H](O)[C@@H](O[C@H]3O[C@H](CO)[C@@H](O)[C@H](N)[C@H]3O)[C@H](N)C[C@@H]2N)[C@H](N)C[C@@H]1O [tobramycin, Tobramycin, reference compound] |  | dense biofilm similar to that of the control |  |  |  |  |  |  |  | destruction of mature biofilm ([4]; listed as antibiotic): little loss of biofilm
